Assay results from patent US20250332173A1, “COMPOUNDS AND METHODS FOR MODULATING NUCLEIC ACID SPLICING” (REMIX THERAPEUTICS INC., priority 2021, published 2025).

Experiments:
HTT = assay: HiBiT protein abundance assay, HTT HiBiT K562 cell line; format: cell-based, human; settings: HiBiT K562 cell line, 24 hours, top dose 10 μM; read-out: Effect on protein abundance, HTT (IC50 category)
Procedure, shortened: (§1)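 K562 knock-in lines with endogenous HiBiT-tagged target, 10,000 cells/well in IMDM + FBS, treated 24 h at 37° C with 10-point 3-fold dilutions (top 10 μM final; DMSO ≤0.25%). Lytic Nano-Glo HiBiT luminescence normalized to untagged K562 baseline and DMSO controls; IC50 = concentration giving 50% abundance via four-parameter fit.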

MYB = assay: HiBiT protein abundance assay, MYB HiBiT K562 cell line; format: cell-based, human; settings: HiBiT K562 cell line, 24 hours, top dose 10 μM; read-out: Effect on protein abundance, MYB (IC50 category)
Procedure, shortened: as §1

Target C = assay: RT-qPCR splicing assay panel, Target C canonical junction (CJ) mRNA; format: cell-based, human; settings: Homo sapiens; Table 5 panel; canonical junction qPCR; compound concentration having 50% response in CJ decrease; read-out: Target C IC50 (decrease in CJ mRNA levels)
Procedure, shortened: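 A673 or K562 cells were treated for 24 h at 37 °C with compound in 11-point 3-fold dilution (top 10 uM final, DMSO ≤0.25%). Lysates then went to one-step RT-qPCR measuring canonical-junction mRNA, normalized to GAPDH, GUSB or PPIA.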

[1] = test system: K562 (human chronic myelogenous leukemia) cells; assay: Cell Titer Glo 2.0 cell viability assay; format: cell-based; settings: Homo sapiens, K562, 72 h, K562 cells, 72 hours, Cell Titer Glo 2.0; read-out: K562 GI50

Row | SMILES | IC50 (HTT) | IC50 (MYB) | IC50 (Target C) | GI50 [1]
1 | Cn1cc2cc(-c3cc(F)c4c(=O)n(C5CCNCC5)cnc4c3)c(F)cc2n1 [Compound 315] | 1000 to 10000 nM | 100 to 1000 nM | 1000 to 10000 nM | 1000 to 10000 nM
2 | Cc1cn2nc(-c3ccc4c(=O)n(C5CCCNCC5)ncc4c3)cc(C)c2n1 (stereo not shown) [Compound 283] | < 100 nM | 100 to 1000 nM | 100 to 1000 nM | 100 to 1000 nM
3 | Cc1cn2nc(-c3cc(F)c4c(=O)n([C@@H]5CCNC6(CC6)C5)cnc4c3)cc(C)c2n1 [Compound 356] | < 100 nM | < 100 nM | 100 to 1000 nM | 100 to 1000 nM
4 | O=c1c2ccc(-c3cn[nH]c3)cc2ncn1C1CCNCC1 [Compound 284] | > 10000 nM | 1000 to 10000 nM | > 10000 nM | > 10000 nM
